Laboratory results taken from US20070298106A1, “Sustained Release Formulation Containing Selective Serotonin Reuptake Inhibitor and Method for the Preparation Thereof” (Amorepacific Corporation, priority 2004, published 2007).
Where a name gives a salt, the structure may show the parent alone.

Test: solubility of the drug
Type: physicochemical

solubility: 5400 µg/mL
Structure (SMILES): Fc1ccc([C@@H]2CCNC[C@H]2COc2ccc3c(c2)OCO3)cc1 [Paroxetine hydrochloride]
